The values that follow are results of earlier work, collected in patent US6413717B1, “Methods for indentifying anti-cancer agents” (Corixa Corporation, priority 1998, dated 2002).

The test system of series [1] is human melanoma cells. The settings on record: IFN-β 2000 U and MEZ 10 ng/mL.
For series [2], the system named is mda-7. The settings on record: IFN-β 2000 U and MEZ 10 ng/mL, agents known to modulate gene expression.

As for `C=C(C)[C@@]12O[C@@]3(c4ccccc4)O[C@@H]1[C@@H]1[C@@H]4O[C@]4(CO)[C@@H](O)[C@]4(O)C(=O)C(C)=C[C@H]4[C@@]1(O3)[C@H](C)[C@H]2OC(=O)/C=C/C=C/c1ccccc1` [mezerein], in series [1], the proliferative potential entry is recorded as “irreversible loss of proliferative potential” and the terminal differentiation entry is reported as “induction of terminal differentiation”. Further, the mda-7 expression result in series [2] is given as “induce an increase”.
